Measurements from patent US11174254B2, “Aniline-substituted 1,2-dihydropyrrol[3,4-C]pyridin/pyrimidin-3-one derivative and use thereof” (SHANGHAI HAIYAN PHARMACEUTICAL TECHNOLOGY CO., LTD., priority 2017, dated 2021).

Columns and labels:
BTK WT = BTK WT (Homo sapiens (Human), UniProt Q06187); experiment: Lantha Screening Kinase Reaction Assay; format: biochemical; details: for IC50: TR-FRET LanthaScreen, kinase Invitrogen PV3363, 60 min at 25° C.; for inhibitory activity against enzyme (BTK WT), in words: comment on table 1, G-12 and G-17 compared with G-2
Sequence of BTK WT (Q06187 whole entry): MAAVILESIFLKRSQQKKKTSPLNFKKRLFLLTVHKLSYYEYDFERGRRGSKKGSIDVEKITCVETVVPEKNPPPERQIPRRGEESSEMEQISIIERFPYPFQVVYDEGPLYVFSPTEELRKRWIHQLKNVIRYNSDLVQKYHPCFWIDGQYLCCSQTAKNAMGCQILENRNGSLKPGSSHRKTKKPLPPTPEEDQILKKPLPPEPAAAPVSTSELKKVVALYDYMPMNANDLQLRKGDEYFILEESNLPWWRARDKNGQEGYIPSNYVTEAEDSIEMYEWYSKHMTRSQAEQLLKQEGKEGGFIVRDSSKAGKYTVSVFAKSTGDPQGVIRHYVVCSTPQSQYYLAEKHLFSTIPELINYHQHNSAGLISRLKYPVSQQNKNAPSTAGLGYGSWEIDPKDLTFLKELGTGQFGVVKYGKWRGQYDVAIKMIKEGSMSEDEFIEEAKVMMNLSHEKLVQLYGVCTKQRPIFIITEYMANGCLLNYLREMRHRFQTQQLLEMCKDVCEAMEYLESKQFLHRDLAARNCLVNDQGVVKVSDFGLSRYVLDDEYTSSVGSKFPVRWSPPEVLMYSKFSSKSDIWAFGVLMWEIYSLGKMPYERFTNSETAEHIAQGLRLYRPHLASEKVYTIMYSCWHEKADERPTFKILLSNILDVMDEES
Method: The compound was predissolved in 100% DMSO.10 mM drug stock solution was obtained by dissolution at room temperature and then gradiently diluted with 8 vol % DMSO solution to a final concentration of 10-0.005 μM. 2.5 μl of a solution of substance to be tested and 2.5 μl of kinase (Invitrogen PV3363) diluted with the reaction buffer were added into each well of 384-well plate (Corning 3676), and then the mixture of Fluososcei-PolyGT (Invitrogen PV3610) substrate and ATP (Invitrogen PV3227) diluted with 5 μl of the reaction buffer were added to initiate the reaction. Among the wells, the kinase in the blank well was replaced with a reaction buffer and the kinase well (Enzyme) was not added with any drug. […] The plates were read on a VictorX5 fluorescent plate reader (PerkinElmer) and the light absorption at an excitation wavelength of 340 nm and emission wavelengths of 500 nm and 520 nm was measured.
2. The half-inhibitory concentration IC50 was calculated by fitting with XLFIT 5.0 software (IDBS, UK).

wild-type EGFR kinase = wild-type EGFR kinase (Homo sapiens (Human), UniProt P00533); experiment: Wild type EGFR kinase inhibition test (z-lyte); format: biochemical; details: wild-type EGFR kinase Invitrogen PV3872, Tyr04 substrate, read-out: EGFR WT IC50
Sequence of wild-type EGFR kinase (P00533 25-1210): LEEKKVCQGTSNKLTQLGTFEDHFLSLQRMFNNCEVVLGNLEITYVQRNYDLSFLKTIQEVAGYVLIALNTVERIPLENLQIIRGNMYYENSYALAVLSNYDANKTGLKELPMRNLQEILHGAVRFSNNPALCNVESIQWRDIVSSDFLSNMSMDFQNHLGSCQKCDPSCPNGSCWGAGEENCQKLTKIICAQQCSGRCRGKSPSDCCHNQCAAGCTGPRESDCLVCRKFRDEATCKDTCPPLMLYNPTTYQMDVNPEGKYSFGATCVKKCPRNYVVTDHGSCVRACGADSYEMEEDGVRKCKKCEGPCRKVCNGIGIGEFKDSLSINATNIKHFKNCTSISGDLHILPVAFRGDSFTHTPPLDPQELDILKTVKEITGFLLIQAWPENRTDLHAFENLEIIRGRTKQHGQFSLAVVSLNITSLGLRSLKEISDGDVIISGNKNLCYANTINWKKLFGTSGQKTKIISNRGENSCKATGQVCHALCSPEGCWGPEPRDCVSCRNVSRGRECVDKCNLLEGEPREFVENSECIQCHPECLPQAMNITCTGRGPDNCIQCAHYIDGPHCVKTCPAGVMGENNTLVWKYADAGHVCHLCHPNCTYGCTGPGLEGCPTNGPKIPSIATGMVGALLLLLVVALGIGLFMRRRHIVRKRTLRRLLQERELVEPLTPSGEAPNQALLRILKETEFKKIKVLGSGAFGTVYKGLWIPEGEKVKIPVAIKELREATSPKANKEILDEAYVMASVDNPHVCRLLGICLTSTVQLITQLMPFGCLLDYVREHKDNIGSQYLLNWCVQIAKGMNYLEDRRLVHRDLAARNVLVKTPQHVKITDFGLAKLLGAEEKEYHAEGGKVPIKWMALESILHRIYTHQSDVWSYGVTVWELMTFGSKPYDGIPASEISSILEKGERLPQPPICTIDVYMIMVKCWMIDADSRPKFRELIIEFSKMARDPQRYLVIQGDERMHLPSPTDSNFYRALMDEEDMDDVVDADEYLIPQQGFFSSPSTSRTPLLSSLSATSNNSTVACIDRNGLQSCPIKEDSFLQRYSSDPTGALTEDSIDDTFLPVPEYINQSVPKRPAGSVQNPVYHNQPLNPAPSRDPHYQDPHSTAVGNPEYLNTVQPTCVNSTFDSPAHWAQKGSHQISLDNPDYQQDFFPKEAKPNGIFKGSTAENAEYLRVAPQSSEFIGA
Source text: All the following reagents used in z-lyte test are commercially available from Invitrogen.
The calculation method for the inhibition ratio (referring to the instruction of PV3363, Invitrogen) was as follows: ER=Coumarin Emission (450 nm)/Fluorescein Emission (520 nm) 1. Phosphorylation ratio=(1−((ER×C3520 nm−C3450 nm)/((C1450 nm−C3450 nm)+ER×(C3520 nm−C1520 nm))))×100% 2. Inhibition ratio (IR)=(1-phosphorylation ratio of the test compound)/(phosphorylation ratio of C2))×100% 3.
The half-inhibitory concentration IC50 was calculated by fitting with XLFIT 5.0 software (IDBS, UK).

βBTK Y223 (Ramos cells) = βBTK Y223 (Ramos cells) (Homo sapiens (Human), UniProt Q06187); experiment: HTRF method for detecting intracellular βBTK Y223 phosphorylation; format: cell-based; details: 1 hour compound incubation, sodium pervanadate stimulation
Sequence of βBTK Y223 (Ramos cells) (Q06187 whole entry): as the sequence (Q06187 whole entry) above
Method: The compound was predissolved in 100% DMSO. 10 mM drug stock solution was obtained by dissolution at room temperature and then gradiently diluted with 5 vol % DMSO solution to a final concentration of 3-0.0014 μM. Ramos cells were seeded into a 96-well plate at a density of 4×10^5/well with 45 μl of 1640 medium containing 10% (V/V) FBS per well, and 5 μl of diluted solution of substance to be tested was added to each well. Incubation was performed for 1 hour at 37° C., 5% (V/V) CO2. 10 μl of sodium pervanadate dilution (diluted with 1640 without serum) was added, and 10 μl of serum-free medium was added to the negative control wells. Incubation was performed at 25° C. for 30 minutes on a shaker. 20 μl of lysate (4× lysate: blocked mother liquor is equal to 25:1) was added to each well and incubated for 30 minutes at 25° C. on a shaker. The 96-well plate was shaken on an oscillator at 800 rpm for 1 minute. 16 μl of cell lysate was added to a 384-well plate (Greiner 784075), and 4 μl of pre-mixed antibody solution (Phospho-BTK d2 antibody and Phospho-BTK Cryptate antibody diluted 20-fold with the test solution) was added. Incubation was performed at 25° C. overnight on a shaker. The plate was read on a VictorX5 fluorescent plate reader (PerkinElmer) and the light absorption at an excitation wavelength of 317 nm and emission wavelengths of 500 nm and 520 nm was measured (referring to the instruction of 63ADK017PEH, Cisbio). The half-inhibitory concentration IC50 was calculated by fitting with XLFIT 5.0 software (IDBS, UK).

| Structure (SMILES) | IC50 (BTK WT) [µM] | IC50 (wild-type EGFR kinase) [µM] | IC50 (βBTK Y223 (Ramos cells)) [µM] | inhibitory activity against enzyme (BTK WT), in words (BTK WT) |
| --- | --- | --- | --- | --- |
| C=CC(=O)Nc1cccc(Nc2nc(Nc3ccc(OCCOC)cc3)c3c(c2F)C(C)NC3=O)c1 (stereo not drawn) [Compound G-1, N-(3-((7-fluoro-4-((4-(2-methoxyethoxy)phenyl)amino)-1-methyl-3-oxo-2,3-dihydro-1H-pyrrolo[3,4-C]pyridin-6-yl)amino)phenyl)acrylamide] | 0.141 | 9.27 |  |  |
| C=CC(=O)Nc1cccc(Nc2nc3c(c(Nc4ccc(OCCOC)cc4)n2)C(=O)NC3)c1 [Compound G-2, N-(3-(4-(4-(2-methoxyethoxy)phenylamino)-5-oxo-6.7-dihydro-5H-pyrrolo[3,4-d]pyrimidin-2-ylamino)phenyl)acrylamide] | 0.025 | 4.69 | 0.043 |  |
| C=CC(=O)Nc1cccc(Nc2nc(Nc3ccc(OCCOC)cc3)c3c(c2F)CNC3=O)c1 [Compound G-3, N-(3-(7-fluoro-4-(4-(2-methoxyethoxy)phenylamino)-3-oxo-2,3-dihydro-1H-pyrrolo[3,4-c]pyridin-6-ylamino)phenyl)acrylamide] | 0.058 | > 10 | 0.106 |  |
| C=CC(=O)Nc1cccc(Nc2nc(Nc3ccc(N4CCN(CC(C)O)CC4)cc3)c3c(c2F)CNC3=O)c1 (stereo not drawn) [Compound G-4, N-(3-(7-fluoro-4-(4-(4-(2-hydroxypropyl)piperazin-1-yl)phenylamino)-3-oxo-2,3-dihydro-1H-pyrrolo[3,4c]pyridin-6-ylamino)phenyl)acrylamide] | 0.01 | 3 | 0.006 |  |
| C=CC(=O)Nc1cccc(Nc2nc(Nc3ccc(OCCOC)cc3)c3c(c2F)C(C)(C)NC3=O)c1 [Compound G-5, N-(3-(7-fluoro-4-(4-(2-methoxyethoxy)phenylamino)-1,1-dimethyl-3-oxo-2,3-dihydro-1H-pyrrolo[3,4-c]pyridin-6-ylamino)phenyl)acrylamide] | 0.156 |  |  |  |
| C=CC(=O)Nc1cccc(Nc2nc3c(c(Nc4ccccc4)n2)C(=O)NC3)c1 [Compound G-6, N-(3-(5-oxo-4-(phenylamino)-6,7-dihydro-5H-pyrrolo[3,4-d]pyrimidin-2-ylamino)phenyl)acrylamide] | 0.014 | 3 | 0.02 |  |
| C=CC(=O)Nc1cccc(Nc2nc3c(c(Nc4cnn(C5CCOCC5)c4)n2)C(=O)NC3)c1 [Compound G-7, N-(3-(5-oxo-4-(1-(tetrahydro-2H-pyran-4-yl)-1H-pyrazol-4-ylamino)-6,7-dihydro-5H-pyrrolo[3,4d]pyrimidin-2-ylamino)phenyl)acrylamide] | 0.019 | 6.99 | 0.111 |  |
| C=CC(=O)Nc1cccc(Nc2nc3c(c(Nc4cnn(C)c4)n2)C(=O)NC3)c1 [Compound G-8, N-(3-(4-(1-methyl-1H-pyrazol-4-ylamino)-5-oxo-6,7-dihydro-5H-pyrrolo[3,4-d]pyrimidin-2-ylamino)phenyl)acrylamide] | 0.009 | 6.42 | 0.036 |  |
| C=CC(=O)Nc1cccc(Nc2nc3c(c(Nc4cnn(CC(C)(C)O)c4)n2)C(=O)NC3)c1 [Compound G-9, N-(3-(4-(1-(2-hydroxyl-2-methylpropyl)-1H-pyrazol-4-ylamino)-5-oxo-6,7-dihydro-5H-pyrrolo[3,4-d]pyrimidin-2-ylamino)phenyl)acrylamide] | 0.055 | 5.03 | 0.082 |  |
| C=CC(=O)Nc1cccc(Nc2cc3c(c(Nc4ccc(OCCOC)cc4)n2)C(=O)NC3)c1 [Compound G-10, N-(3-(4-(4-(2-methoxyethoxy)phenylamino)-3-oxo-2,3-dihydro-1H-pyrrolo[3,4-c]pyridin-6-ylamino)phenyl)acrylamide] | 0.068 | > 10 | 0.164 |  |
| C=CC(=O)Nc1cccc(Nc2nc3c(c(-c4cnn(C)c4)n2)C(=O)NC3)c1 [Compound G-11, N-(3-(4-(1-methyl-1H-pyrazol-4-yl)-5-oxo-6,7-dihydro-5H-pyrrolo[3,4-d]pyrimidin-2-ylamino)phenyl)acrylamide] | 0.048 | > 10 | 0.004 |  |
| C=CC(=O)Nc1cccc(Nc2nc3c(c(Oc4ccc(OCCOC)cc4)n2)C(=O)NC3)c1 [Compound G-12, N-(3-((4-(4-(2-methoxyethoxy)phenoxyl)-5-oxo-6,7-dihydro-5H-pyrrolo[3,4-d]pyrimidin-2-yl)amino)phenyl)acrylamide] | 1.35 | 1.53 |  | significantly reduced |
| C=CC(=O)Nc1cccc(Nc2nc3c(c(Nc4cnn(C5CC5)c4)n2)C(=O)NC3)c1 [Compound G-13] | 0.063 | 3.08 | 0.081 |  |
| C=CC(=O)Nc1cccc(Nc2nc3c(c(Nc4cnn(CCOC)c4)n2)C(=O)NC3)c1 [Compound G-14] | 0.059 | 2.69 | 0.103 |  |
| C=CC(=O)Nc1cccc(Nc2nc3c(c(Nc4ccc(N5CCOCC5)cc4)n2)C(=O)NC3)c1 [Compound G-15] | 0.052 | 4.26 | 0.036 |  |
| C=CC(=O)N(CC)c1cccc(Nc2nc3c(c(Nc4ccc(N5CCN(C6COC6)C[C@@H]5C)cc4)n2)C(=O)NC3)c1 [Compound G-16] | 0.044 | 5.68 | 0.062 |  |
| C=CC(=O)Nc1cccc(Nc2nc3c(c(N(C)c4ccc(OCCOC)cc4)n2)C(=O)NC3)c1 [Compound G-17] | > 10 | > 10 |  | significantly lowered |
